In patent publication US9714224B2, “Heterocyclic compounds and methods of their use” (Novartis AG, priority 2013, dated 2017):

Biological target: AT2 receptor (Homo sapiens (Human), UniProt P50052)
Experiment: AT2 receptor binding assay ([125I]-CGP42112A displacement, HEK293/AT2 receptor cell membranes)
Conditions: membranes of HEK293 cells transiently transfected with AT2 receptor; radioligand [125I]-CGP42112A; RT, 1.5 hrs
Description: Biological Example 1: AT2 Receptor Binding
• 1. Trypsin-EDTA (for preparation of 100 mL) • Trypsin 0.25 g • 2% EDTA 2 mL • PBS 98 mL • Dissolve trypsin in 2% EDTA and PBS completely; sterilize the solution by passing through a […] membrane filter; store at 4° C. • 2. DMEM medium (for preparation of IL) • The powder was dissolved into 950 mL of distilled water with gentle stirring until the solution becomes clear. • Add NaHCO3 1.176 g for DMEM medium. • Adjust pH of medium to 0.2-0.3 below final working pH using 1 M NaOH or 1 M HCl. Add slowly with stirring. • Dilute to 1 liter with ddH2O. • Sterilize the medium immediately by filtration. • Store at 4° C. • 3. TE buffer • 20 mM Tris-HCl, pH 7.4. • 5 mM EDTA • 4. Binding Assay Buffer • 50 mM HEPES, pH 7.4 • 5 mM MgCl2 • 1 mM CaCl2 • 0.2% BSA • 5. […] Cells were ready for transfection after overnight incubation (the confluence reaches around 80%). • 75 μL Lipofectamine™ 2000 diluted in 6.25 mL OptiMEM I Reduced Serum Medium, was mixed gently, and incubated at room temperature for 5 minutes, 50 μg expression plasmid DNA diluted in 6.25 mL OptiMEM I Reduced Serum Medium without serum was mixed gently. • After the 5 minute incubation, the diluted DNA was combined with the diluted Lipofectamine™ 2000 (total volume is 12.5 mL). […]

Chain of AT2 receptor (P50052 whole entry, species assumed): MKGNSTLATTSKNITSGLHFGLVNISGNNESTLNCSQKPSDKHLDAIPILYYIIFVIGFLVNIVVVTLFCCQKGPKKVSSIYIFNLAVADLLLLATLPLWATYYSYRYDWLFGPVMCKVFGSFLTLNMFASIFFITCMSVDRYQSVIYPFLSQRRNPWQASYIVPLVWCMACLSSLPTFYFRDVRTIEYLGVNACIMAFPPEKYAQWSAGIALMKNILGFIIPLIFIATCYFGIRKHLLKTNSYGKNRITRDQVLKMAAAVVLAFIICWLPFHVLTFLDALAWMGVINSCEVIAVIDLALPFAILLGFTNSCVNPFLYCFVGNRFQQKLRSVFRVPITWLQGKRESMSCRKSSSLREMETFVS

| IC50 [nM] | SMILES |
| --- | --- |
| 431 | COc1ccc2c(c1OCc1ccccc1)CC(C(=O)O[C@@H]1O[C@H](C(=O)O)[C@@H](O)[C@H](O)[C@H]1O)N(C(=O)C(c1ccccc1)c1ccccc1)C2 (some centres unmarked) [Compound 33] |
| 1790 | COc1ccc2c(c1O)C[C@@H](C(=O)NS(=O)(=O)N(C)C)N(C(=O)C(c1ccccc1)c1ccccc1)C2 [Compound 41] |
